Measurements published in patent US10421820B2, “Bruton's tyrosine kinase as anti-cancer drug target” (The Research Foundation for The State University of New York, priority 2008, dated 2019).
“Also recorded” adds a separate entry of the source.

Tests used:
[1] = test system: HER2+ breast cancer cells; assay: Growth factor-driven lapatinib resistance in HER2+ breast cancer cells (NRG, EGF); assay type: cell-based, human
SKBR3 xenograft = SKBR3 xenograft tumor growth in NOD/SCID mice (mammary fat pad injection); assay type: in vivo; settings: 12 mg/kg, day 28, p<0.01
MDA-MB-231 cells = assay: MDA-MB-231 tail vein metastasis model in NOD/SCID mice; assay type: in vivo; settings: 12 mg/kg per day, oral
Procedure: FIG. 24A-24D. […] (24A) 10^6 MDA-MB-231 cells in 100 μl PBS were injected into the tail vein of 4-5 week old female NOD/SCID mice (Jackson Labs). Injected animals were randomly assigned to control or experimental groups. Starting at time of tail vein injection, mice were treated with vehicle or ibrutinib (12 mg/kg per day, oral). At end point, mice were euthanized and bones and organs collected for histological analysis. Note that all bone metastases in control groups led to the development of paralysis (5/16, n=16 per group). […] Thin section of a tumor arising in an untreated control animal.
More specifically, 10^6 MDA-MB-231 (Her2-) cells in 100 μl PBS were injected into the tail vein of 4-5 week old female NOD/SCID mice (Jackson Labs). Injected animals were randomly assigned to control or experimental groups. Starting at time of tail vein injection, mice were treated with vehicle or ibrutinib (12 mg/kg per day, oral). At end point, mice were euthanized then bones and organs collected for histological analysis. Note that bone metastases in control groups led to the development of paralysis (5/16, n=16 per group).

[2] = test system: MCF-7 and MDA-MB-361 cell lines; assay: 2-NBDG glucose uptake in breast cancer cell lines; assay type: cell-based, human; settings: breast cancer cell lines that express BTK-C; LFM-A13 for 24 hours
Procedure: (§1) FIG. 15A-15D. BTK-C promotes glucose uptake. […] Immunofluorescence pictures were taken in INCELL-1000; (15d) Fluorescence intensity was quantified in right. […] (15a) The effect of BTK-C on glucose uptake in breast cancer cell lines. MCF-7 and MDA-MB-361 cell lines were treated as in (15c). (15b) Fluorescence intensity shown at right panel, *p<0.01.

BT474 cells [3] = assay: Cleaved caspase-3 apoptosis assay in BT474 cells; assay type: cell-based, human
Procedure: For high-throughput experiments, cells grown on 96-well plates were washed once with 1×PBS, fixed with 2.5% formaldehyde and stained with Hoechst 33342 (Molecular Probes-Invitrogen). Cell images were acquired using an In Cell Analyzer 1000 (GE Healthcare) high content imaging system, with a 20× objective. At least 50 fields were imaged per single experiment. Cell counts and statistics were then performed using the In Cell Investigator 3.4 high-content image analysis software (GE Healthcare). Apoptosis was detected by cleaved Caspase-3 after 48 h to 96 h of shRNA treatments. […] Control cells were treated with DMSO. For the cleaved caspase-3 assay, cells were fixed after treatment with 2.5% formaldehyde, washed with 1×PBS, permeabilized with 0.1% Triton-X 100 (Fisher Chemicals), blocked with 3% normal goat serum (Sigma-Aldrich), incubated with a 1:50-1:200 dilution of the primary antibody, washed with 1×PBS, incubated with a 1:800 dilution of the secondary antibody, washed again with 1×PBS and finally stained with Hoechst 33342 (Molecular Probes-Invitrogen). Cells were imaged by the In Cell Analyzer 1000 (GE Healthcare) or by a Leica TCS SP5 confocal microscope system (Leica Microsystems). At least 500 cells were counted for cleaved Caspase-3. […]

[4] = test system: MCF-10A cells over-expressing BTK-C; settings: 35 μM LFM-A13 for 24
10A-BTK-C cells = assay: 2-NBDG glucose uptake in MCF-10A cells over-expressing BTK-C; assay type: cell-based, human; settings: LFM-A13 for 24 hours
Procedure: as §1

BTK-A and BTK-C proteins = assay: BTK Tyr223 auto-phosphorylation, anti-Flag IP and Western blot in BT474 cells over-expressing BTK-A-flag or BTK-C-flag; assay type: cell-based, human
[5] = test system: HER2, AKT and ERK phosphorylation; assay: Immunoblots of HER2, AKT and ERK phosphorylation in SKbr3 cells with or without EGF; assay type: cell-based, human; settings: 1 μM, EGF 50 ng/ml, 3 hours
[6] = test system: SK-Br-3 Her2/neu positive breast cancer cells; assay: SKBR3 cell number after 72 hours with or without EGF; assay type: cell-based, human; settings: 50 ng/ml EGF
BTK-C-flag protein = BTK-C-flag protein knockdown by immunoblot in HEK 293T cells with BTK-C specific siRNAs; assay type: cell-based, human; settings: transfected HEK 293T cells
Procedure: (§2) FIG. 12A-12D. The BTK-C gene produces an 80 kD product. (12a) A schematic representation showing the domains of the BTK-A and predicted BTK-C protein. (12b) Total lysate from breast lines and Namalwa B-cells subjected to immunoblotting and probed with an anti-BTK antibody (BD Transduction Laboratory, 611116). (12c) HEK293 cells co-transfected with a BTK-C flag vector and either BTK-C siRNAs or Non-Target siRNA. Total lysate was prepared 96 hrs post transfection and was used for immunoblotting with anti-Flag antibody. (12d) BT474 cells were transfected with two BTK-C specific siRNAs, non-target siRNA as a control and co-transfected with GFP to mark transfected cells. Transfected cells were counted at 24 h and 96 h and the 96 hr to 24 hr ratio was calculated and expressed as % of the control.

BT474 cells [7] = assay: BT474 viability after BTK-C specific siRNAs (GFP-marked cell counts, 96 h to 24 h ratio); assay type: cell-based, human
Procedure: as §2

Molecule: C=CC(=O)Nc1cccc(Nc2nc(Nc3ccc(OCCOC)cc3)ncc2F)c1 [AVL-292]
- EGFR family activation [1]: has no effect on EGFR family activation
- NRG- and EGF-dependent growth factor-driven resistance to lapatinib [1]: prevents NRG- and EGF-dependent growth factor-driven resistance to lapatinib

Molecule: C=CC(=O)N1CCC[C@@H](n2nc(-c3ccc(Oc4ccccc4)cc3)c3c(N)ncnc32)C1 [Ibrutinib]
- tumor volumes smaller than vehicle control (SKBR3 xenograft): 45%
- decrease of non-lung metastases (MDA-MB-231 cells): 3 fold

Molecule: C/C(O)=C(\C#N)C(=O)Nc1cc(Br)ccc1Br [LFM-A13]
- glucose uptake (2-NBDG fluorescence) [2]: inhibits glucose uptake
- increase of apoptosis levels compared to control (BT474 cells [3]; 25 uM LFM-A13, BT474 cells): 8%
- increase of apoptosis levels compared to control (BT474 cells [3]; 35 μM LFM-A13, BT474 cells, 48 h): six fold
- acquired resistance to Doxorubicin (1 μM) [4]: abolishes the acquired resistance to Doxorubicin
- glucose uptake (2-NBDG fluorescence) (10A-BTK-C cells): inhibited
- phosphorylation of both the BTK-A and BTK-C proteins (BTK-A and BTK-C proteins; 35 μM LFM-A13 for 48 h): significantly impedes phosphorylation
- phosphorylation of BTK-A and BTK-C proteins (pY223) (BTK-A and BTK-C proteins; 100 μM LFM-A13 for 45 mins): severely impeded phosphorylation; also recorded: reduces phosphorylation of BTK

Molecule: CS(=O)(=O)CCNCc1ccc(-c2ccc3ncnc(Nc4ccc(OCc5cccc(F)c5)c(Cl)c4)c3c2)o1 [Lapatinib]
- ERK activation in the presence of EGF [5]: EGF counteracts lapatinib's effect, causing ERK re-activation
- effect of EGF treatment on drug activity (cell number) [6]: EGF treatment counteracts lapatinib to a much larger degree than PCI-32765

Molecule: siRNA2: BTK-C specific siRNA, sense SEQ ID NO: 68, antisense SEQ ID NO: 69 (sense CAACAAAUGGUUAUUGGAUUU; antisense AUCCAAUAACCAUUUGUUGUU; chemistry not given here; listed as Homo sapiens)
- BTK-C-flag protein expression (BTK-C-flag protein): reduce BTK-C-flag protein expression
- viability of BT474 cells (BT474 cells [7]): decrease the viability
